Test results: patent publication US20110251286A1, “Crystalline salts and/or co-crystals of O-desmethyltramadol” (GRUENENTHAL GmbH, priority 2010, published 2011)

How the values were obtained:
[1] = Release in artificial intestinal juice; assay type: physicochemical; conditions: permeable bag, amount calculated on 100 mg free base
Protocol: Investigations on release were carried out in a Sotax AT7 smart release apparatus with UV measurement (Perkin Elmer photometer).
A vessel with Wood apparatus was used (for intrinsic release).
A pressing of 0.5 cm^2 surface area (diameter 8 mm) was produced with a force of 200 N using approximately 100 mg of active ingredient.
Release was carried out in a release medium, which is composed as described below: • Intestinal juice without pancreas powder, pH 6.8 (analogous to Ph. Eur.); 250.0 ml 6.8 g of potassium dihydrogenphosphate R+0.896 g of NaOH+water to 1000.0 ml.
Release was carried out in a release volume of in each case 500±5 ml at a temperature of the release medium of 37±1° C. with a stirring speed of 100±5 rpm.
The content determination was carried out by means of spectroscopic methods (UV spectroscopy, wavelength: 271 nm, cuvette: 10 mm). Sample taking was carried out manually.
In this release experiment, the individual compounds were placed in a permeable bag in an amount in each case calculated on 100 mg of the free base.
The results, expressed in percent of the substance released, are reproduced in the following tables. In this case, the compounds denote: HCl: hydrochloride; A: cinnamate; B: palmitate; C: decanoate; E: hemi-fumarate and F: hemi-sebacate.

[2] = Dynamic vapor sorption (DVS): sorption and desorption of moisture; assay type: physicochemical
Protocol: Investigations on the sorption and desorption of moisture (dynamic vapor sorption, DVS): DVS measurements were carried out on an apparatus of the type DVS 1000 from Porotec. The evaluation of the measurements was carried out using software from Surface Measurement Systems. At a temperature between 23° C. and 26° C., starting from a relative humidity of 50%, within 240 minutes the relative humidity first increased to 90% and then fell to 0%. This cycle was repeated a second time. The DVS charts shown are isothermal recordings (plots) of the change in the mass in % (change in mass—dry) as a function of the desired relative humidity in % (target RH). Correspondingly, the axes of the graphs are marked by ΔM [%] and RH [%]. The measurement curves of the first sorption are designated by 1-S, the subsequent first desorption by 1-D, the second sorption by 2-S and the second desorption by 2-D. Advantageously, mass changes between the sorption and desorption phase are as low as possible.

CN(C)CC1CCCCC1(O)c1cccc(O)c1.CN(C)CC1CCCCC1(O)c1cccc(O)c1.O=C(O)C=CC(=O)O (stereo not drawn) [E-1]
Release in artificial intestinal juice, percent of the substance released ([1]; t 2 min): 99.32%
Release in artificial intestinal juice, percent of the substance released ([1]; t 4 min): 100.25%
Release in artificial intestinal juice, percent of the substance released ([1]; t 6 min): 99.24%
Release in artificial intestinal juice, percent of the substance released ([1]; t 8 min): 99.47%
Release in artificial intestinal juice, percent of the substance released ([1]; t 10 min): 100.58%
Release in artificial intestinal juice, percent of the substance released ([1]; t 12 min): 99.42%
Release in artificial intestinal juice, percent of the substance released ([1]; t 15 min): 98.40%
Release in artificial intestinal juice, percent of the substance released ([1]; t 30 min): 100.24%

CN(C)CC1CCCCC1(O)c1cccc(O)c1.CN(C)CC1CCCCC1(O)c1cccc(O)c1.O=C(O)C=CC(=O)O (stereo not drawn) [E-2]
Release in artificial intestinal juice, percent of the substance released ([1]; t 2 min): 95.38%
Release in artificial intestinal juice, percent of the substance released ([1]; t 4 min): 96.67%
Release in artificial intestinal juice, percent of the substance released ([1]; t 6 min): 95.80%
Release in artificial intestinal juice, percent of the substance released ([1]; t 8 min): 96.46%
Release in artificial intestinal juice, percent of the substance released ([1]; t 10 min): 96.47%
Release in artificial intestinal juice, percent of the substance released ([1]; t 12 min): 96.45%
Release in artificial intestinal juice, percent of the substance released ([1]; t 15 min): 96.19%
Release in artificial intestinal juice, percent of the substance released ([1]; t 30 min): 96.42%

CN(C)CC1CCCCC1(O)c1cccc(O)c1.CN(C)CC1CCCCC1(O)c1cccc(O)c1.O=C(O)CCCCCCCCC(=O)O (stereo not drawn) [F-1]
Release in artificial intestinal juice, percent of the substance released ([1]; t 2 min): 90.31%
Release in artificial intestinal juice, percent of the substance released ([1]; t 4 min): 95.86%
Release in artificial intestinal juice, percent of the substance released ([1]; t 6 min): 98.37%
Release in artificial intestinal juice, percent of the substance released ([1]; t 8 min): 99.10%
Release in artificial intestinal juice, percent of the substance released ([1]; t 10 min): 98.48%
Release in artificial intestinal juice, percent of the substance released ([1]; t 12 min): 98.55%
Release in artificial intestinal juice, percent of the substance released ([1]; t 15 min): 99.15%
Release in artificial intestinal juice, percent of the substance released ([1]; t 30 min): 98.74%

CN(C)CC1CCCCC1(O)c1cccc(O)c1.CN(C)CC1CCCCC1(O)c1cccc(O)c1.O=C(O)CCCCCCCCC(=O)O (stereo not drawn) [F-2]
Release in artificial intestinal juice, percent of the substance released ([1]; t 2 min): 96.05%
Release in artificial intestinal juice, percent of the substance released ([1]; t 4 min): 99.26%
Release in artificial intestinal juice, percent of the substance released ([1]; t 6 min): 100.16%
Release in artificial intestinal juice, percent of the substance released ([1]; t 8 min): 1.21%
Release in artificial intestinal juice, percent of the substance released ([1]; t 10 min): 100.92%
Release in artificial intestinal juice, percent of the substance released ([1]; t 12 min): 101.24%
Release in artificial intestinal juice, percent of the substance released ([1]; t 15 min): 101.22%
Release in artificial intestinal juice, percent of the substance released ([1]; t 30 min): 101.26%

CN(C)C[C@H]1CCCC[C@]1(O)c1cccc(O)c1.Cl [HCl-1]
Release in artificial intestinal juice, percent of the substance released ([1]; t 2 min): 99.16%
Release in artificial intestinal juice, percent of the substance released ([1]; t 4 min): 99.89%
Release in artificial intestinal juice, percent of the substance released ([1]; t 6 min): 98.77%
Release in artificial intestinal juice, percent of the substance released ([1]; t 8 min): 101.08%
Release in artificial intestinal juice, percent of the substance released ([1]; t 10 min): 100.57%
Release in artificial intestinal juice, percent of the substance released ([1]; t 12 min): 100.66%
Release in artificial intestinal juice, percent of the substance released ([1]; t 15 min): 99.62%
Release in artificial intestinal juice, percent of the substance released ([1]; t 30 min): 101.02%

CN(C)C[C@H]1CCCC[C@]1(O)c1cccc(O)c1 [free base, (+)-(1R,2R)-3-[2-(dimethylamino)methyl-1-hydroxycyclohexyl]phenol]
ΔM Desorption ([2]; 1st cycle, RH 0.0 %): 0.00000%
ΔM Desorption ([2]; 1st cycle, RH 10.0 %): 0.00395%
ΔM Desorption ([2]; 1st cycle, RH 20.0 %): 0.00526%
ΔM Desorption ([2]; 1st cycle, RH 30.0 %): 0.00526%
ΔM Desorption ([2]; 1st cycle, RH 40.0 %): 0.00636%
ΔM Desorption ([2]; 1st cycle, RH 50.0 %): 0.00614%
ΔM Hysteresis ([2]; 1st cycle, RH 50.0 %): −0.00241%
ΔM Sorption ([2]; 1st cycle, RH 50.0 %): 0.00855%
ΔM Desorption ([2]; 1st cycle, RH 60.0 %): 0.00526%
ΔM Hysteresis ([2]; 1st cycle, RH 60.0 %): −0.00219%
ΔM Sorption ([2]; 1st cycle, RH 60.0 %): 0.00746%
ΔM Desorption ([2]; 1st cycle, RH 70.0 %): 0.00395%
ΔM Hysteresis ([2]; 1st cycle, RH 70.0 %): 0.00219%
ΔM Sorption ([2]; 1st cycle, RH 70.0 %): 0.00175%
ΔM Desorption ([2]; 1st cycle, RH 80.0 %): 0.00132%
ΔM Hysteresis ([2]; 1st cycle, RH 80.0 %): 0.00592%
ΔM Sorption ([2]; 1st cycle, RH 80.0 %): −0.00461%
ΔM Desorption ([2]; 1st cycle, RH 90.0 %): −0.01097%
ΔM Sorption ([2]; 1st cycle, RH 90.0 %): −0.01097%
ΔM Desorption ([2]; 2nd cycle, RH 0.0 %): −0.00461%
ΔM Sorption ([2]; 2nd cycle, RH 0.0 %): 0.00000%
ΔM Desorption ([2]; 2nd cycle, RH 10.0 %): −0.00132%
ΔM Hysteresis ([2]; 2nd cycle, RH 10.0 %): −0.00329%
ΔM Sorption ([2]; 2nd cycle, RH 10.0 %): 0.00197%
ΔM Desorption ([2]; 2nd cycle, RH 20.0 %): 0.00044%
ΔM Hysteresis ([2]; 2nd cycle, RH 20.0 %): −0.00351%
ΔM Sorption ([2]; 2nd cycle, RH 20.0 %): 0.00395%
ΔM Desorption ([2]; 2nd cycle, RH 30.0 %): 0.00132%
ΔM Hysteresis ([2]; 2nd cycle, RH 30.0 %): −0.00395%
ΔM Sorption ([2]; 2nd cycle, RH 30.0 %): 0.00526%
ΔM Desorption ([2]; 2nd cycle, RH 40.0 %): 0.00307%
ΔM Hysteresis ([2]; 2nd cycle, RH 40.0 %): −0.00395%
ΔM Sorption ([2]; 2nd cycle, RH 40.0 %): 0.00702%
ΔM Desorption ([2]; 2nd cycle, RH 50.0 %): 0.00395%
ΔM Hysteresis ([2]; 2nd cycle, RH 50.0 %): −0.00592%
ΔM Sorption ([2]; 2nd cycle, RH 50.0 %): 0.00987%
ΔM Desorption ([2]; 2nd cycle, RH 60.0 %): 0.00395%
ΔM Hysteresis ([2]; 2nd cycle, RH 60.0 %): −0.00724%
ΔM Sorption ([2]; 2nd cycle, RH 60.0 %): 0.01119%
ΔM Desorption ([2]; 2nd cycle, RH 70.0 %): 0.00329%
ΔM Hysteresis ([2]; 2nd cycle, RH 70.0 %): −0.00417%
ΔM Sorption ([2]; 2nd cycle, RH 70.0 %): 0.00746%
ΔM Desorption ([2]; 2nd cycle, RH 80.0 %): 0.00132%
ΔM Hysteresis ([2]; 2nd cycle, RH 80.0 %): 0.00197%
ΔM Sorption ([2]; 2nd cycle, RH 80.0 %): −0.00066%
ΔM Desorption ([2]; 2nd cycle, RH 90.0 %): −0.01031%
ΔM Sorption ([2]; 2nd cycle, RH 90.0 %): −0.01031%
ΔM Sorption ([2]; 3rd cycle, RH 0.0 %): −0.00461%
ΔM Sorption ([2]; 3rd cycle, RH 10.0 %): −0.0011%
ΔM Sorption ([2]; 3rd cycle, RH 20.0 %): 0.00066%
ΔM Sorption ([2]; 3rd cycle, RH 30.0 %): 0.00197%
ΔM Sorption ([2]; 3rd cycle, RH 40.0 %): 0.00461%
ΔM Sorption ([2]; 3rd cycle, RH 50.0 %): 0.00768%
